The text below walks through data of patent US8969026B2, “Polymeric reverse micelles as selective extraction agents and related methods of MALDI-MS analysis” (University of Massachusetts, priority 2007, dated 2015).

No end group written: not given here.

Series [1] is described as follows: Control extraction of pI markers into toluene alone (no polymer). In kind it is physicochemical. The settings on record: no reverse micelles / absence of polymer; pH independent. The method, then: Previously, it was shown for a series of peptides that charge complementarity exerts an important influence on the extraction process with these amphiphilic homopolymers. (See, M. Y. Combariza, E. N. Savariar, D. R. Vutukuri, S. Thayumanavan and R. W. Vachet, Anal. Chem. 2007, 79, 7124-7130.) Here, the importance of two other factors—hydrophobicity and aqueous solution pH—are assessed. Hydrophobicity might affect the extraction efficiency to some degree due to the toluene phase that surrounds the reverse micelles and the hydrocarbon functionality on the periphery of the reverse micelles. In order to investigate this effect, extractions of pI markers with different hydrophobicities were performed. As an example of the effect of hydrophobicity, the results from the extraction of two pI markers (4 and 7) at an aqueous phase pH of 6.0 are shown in FIG. 4. […]
(§1) A two-phase liquid-liquid extraction protocol that was previously developed was employed. […] The top (organic) layer was removed and the bottom (aqueous) layer was analyzed by fluorescence spectroscopy. […]
The amount of pI marker left in the bottom (aqueous) layer after extraction was determined on a Photon Technology International fluorometer (Ontario, Canada). Analysis of the organic phase was difficult because the fluorescence spectrum of the polymer in this phase was very broad, and in many cases overlapped with the signal from the pI markers. The excitation and emission wavelengths for each pI marker were chosen to maximize the fluorescence signal. […] For most of the pI markers, the fluorescence intensity was very low under more acidic conditions, making it difficult to collect data at these lower pHs. The fluorescence intensity of the aqueous phase after a given extraction was measured, and in each case the fluorescence intensity was used to determine the concentration of the pI marker remaining in the aqueous phase after the extraction. […]

For series [2] the following is noted: fluorescent pI markers, cited from earlier work.
Series [3] in a line: Liquid-liquid extraction of pI markers by reverse micelles of homopolymer 3 in toluene, fluorescence of the aqueous phase. In kind it is physicochemical. The settings on record: for extraction efficiency: aqueous pH 6.0, reverse micelles present in the toluene phase.
Text: The polymeric reverse micelle-like nanoassemblies have carboxylate groups in their interiors; therefore, positively charged pI markers are expected to be extracted. Upon extraction, the concentrations of the pI markers left in the aqueous phase were quantitatively determined by fluorescence spectroscopy. Analysis of the organic phase was difficult because the fluorescence spectrum of the polymer is very broad in this phase, and in many cases overlaps with the signal from the pI markers. As an example of the data from the aqueous solution, the fluorescence spectra of pI marker 2, before (solid line) and after extraction (dashed line), are shown in FIG. 3. […] The concentration of the pI marker remaining in the aqueous phase can be quantified, and in this example, it is determined that 46% of pI marker 2 remains, which means that 54% of it is extracted into the organic phase when the aqueous solution pH is 1.9. It is not surprising that most of this compound is extracted under these conditions. This marker hag a pI value of 3.0, and at an aqueous solution pH of 1.9, most of this compound is positively charged and therefore interacts favorably with the negatively-charged interior of the polymeric reverse micelles.
as §1
The amount of pI marker left in the bottom (aqueous) layer after extraction was determined on a Photon Technology International fluorometer (Ontario, Canada). Analysis of the organic phase was difficult because the fluorescence spectrum of the polymer in this phase was very broad, and in many cases overlapped with the signal from the pI markers. The excitation and emission wavelengths for each pI marker were chosen to maximize the fluorescence signal. […] For most of the pI markers, the fluorescence intensity was very low under more acidic conditions, making it difficult to collect data at these lower pHs. The fluorescence intensity of the aqueous phase after a given extraction was measured, and in each case the fluorescence intensity was used to determine the concentration of the pI marker remaining in the aqueous phase after the extraction. The amount of pI marker that was extracted by the reverse micelles was then calculated by subtracting the remaining aqueous phase concentration from the initial concentration (1×10^−6 M). The fluorescence measurements were repeated at least 3 times for each extracted sample and the average values are reported.

Series [4] is described as follows: pH-dependent biphasic extraction of a peptide mixture with inverse micelles of polymer 1 in toluene, MALDI-MS ion abundance ratio. In kind it is physicochemical. The settings on record: extraction at pH 7.1 followed by extraction at pH 5.5, organic phase.
Test in series [5]: as above
The note with it: polymer 1 inverse micelles in toluene, K = Iorg/Iaq, [M+H]+ signal, [M+K]+ for spinorphin and β-amyloid, at least 4 replicates; for Ion abundance ratio (K ± sM) pH 4.0: aqueous pH 4.0; for Ion abundance ratio (K ± sM) pH 7.1: aqueous pH 7.1; for Ion abundance ratio (K ± sM) pH 9.0: aqueous pH 9.0. In kind it is physicochemical. The text has this: The net charge within the inverse micelle of 1 is negative, affording a selective extraction of positively-charged peptides. In a typical experiment, a toluene solution containing 1 was mixed with an aqueous solution containing a mixture of peptides. After vortexing this mixture, the organic layer was separated and analyzed using MALDI-MS. […] Because the aqueous solution was buffered at a pH of 7.1, peptides with pI values above 7.1 were expected to be sequestered into the interior of the inverse micelles, while peptides with pI values below 7.1 would be mostly excluded based on Coulombic repulsion.
The ion abundance ratio is related to the extraction capacity of the polymer, and can be defined as the ratio of the MALDI ion abundance of the peptide in the organic phase that contains the inverse micelles (Iorg) to the ion abundance of the peptide remaining in the aqueous phase (Iaq) (K=Iorg/Iaq). These experiments were performed with the hypothesis that the extraction would be based on electrostatic interaction between the polymer and the peptide. To test this premise further, two control experiments were carried out. […] Therefore, a two-phase extraction experiment was done in the absence of homopolymer 1, and no peptide extraction into the organic phase was observed. Second, peptide extractions using a polymer without the negatively-charged functionality were performed. Polymer 2 contains charge-neutral pentaethyleneglycol functionalities instead of the carboxylic acid moieties. […] These two results are consistent with the hypothesis that the extraction is based on electrostatics.
Without limitation to any one theory or mode of operation, the pH of the overall aqueous solution is also likely to dictate the pH of the hydrated interiors of the inverse micelle where the binding takes place. Accordingly, extractions at three different pHs: 4.0, 7.1, and 9.0 were carried out; the results of these experiments are listed in Table 1. […] The results from experiments at pH 7.1 and 9.0 further support this idea. It should be noted that when the experiment is carried out at pH 9.0, the peptide with a pI of 7.7 is extracted to some extent. Such a result could be attributed to errors associated with aqueous solution pH measuring or to errors in the peptide pI calculation. Nonetheless, the tunability is still significant and therefore is a very useful result.
A Bruker Reflex III time-of-flight mass spectrometer was used to perform MALDI-MS analysis. The mass spectrometer is equipped with a 337-nm nitrogen laser, a 1.0 m flight tube, and a stainless steel sample target. All mass spectra were acquired in reflectron mode using a voltage of 16 kV. All reported spectra represent an average of 70 shots acquired at 30% laser power. The accelerating voltage was set to 20 kV.
A typical biphasic extraction procedure involves mixing 200 μL of a toluene solution of homopolymer 1 or 2 (1×10^−4 M) with 1 mL of an aqueous solution of peptide(s) that was buffered to pH ˜7.0 with 50 mM Tris/TrisHCl. The mixture is vortexed for 10 to 120 minutes and centrifuged at 12000 rpm for 30-40 minutes to break the resulting emulsion and separate the organic and aqueous layers. The top (organic) layer is then recovered and dried to obtain a solid residue. The residue is redissolved into 10 μL of THF and sonicated for 10 seconds to promote solubilization. Finally, 20 μL of an α-CHCA matrix solution (0.16 Min 60:40:0.3% THF:H2O:TFA) are added to the sample for a final volume of 30 μL. For MALDI-MS analysis the samples are applied to the target using the dried-droplet method, where 1 μL of the sample/matrix mixture is spotted on a stainless-steel target, and the solvent is evaporated at room temperature. The residual aqueous phase (˜1 mL) after extraction is also examined by MALDI-MS. […]

Series [6] is described as follows: Extraction of a peptide mixture by positively charged imidazole polymer 4 at pH 4.5, MALDI-MS. In kind it is physicochemical. The note with it: each peptide 1.0×10^−6 M. The source says: Extraction of peptide mixture by positively charged polymer. Illustrating other embodiments of this invention, positively-charged polymers extract peptides with pI values below the aqueous solution pH. Without limitation, polymers with moieties comprising a positively charged nitrogenous group can be used with good effect. Representative of such embodiments, an imidazole-substituted polymer, 4, shown below, can be prepared using straight forward synthetic techniques of the sort described herein, and/or as are well-known to those skilled in the art.
At pH 4.5, kinetensin and angiotensin are positively-charged because the pH is below their pI values. […] FIG. 12C provides a mass spectrum of the aqueous phase after extraction at pH 4.5. The positively-charged peptides remain in the aqueous phase after extraction.

[7] abbreviates: aqueous solution pH 1.9, polymer 3 reverse micelles in toluene.

Take `O=C(O)c1cc(Cl)ccc1NCCO` [pI marker 2]: in series [1], the “percentage extracted into toluene alone” value is reported as “about 6.6±0.6%”. In series [2], the pI is on record as 3.0. In addition, in series [3] (setting [7]), the “percentage extracted into the organic phase” value was found to be 54% and the “percentage of pI marker remaining in the aqueous phase after extraction” value is listed as 46%.
On to `O=C(CNc1ccccc1C(=O)O)NCCN1CCOCC1` [pI marker 4], for which the “percentage extracted into toluene alone” value in series [1] worked out at 8.4±0.6%. For the same compound, the pI in series [2] was 5.1. Moreover, in series [3], the extraction efficiency was found to be 21.5±0.4%.
Consider `CN(C)CCCNC(=O)c1cc(Cl)ccc1O` [pI marker 7], for which the “percentage extracted into toluene alone” value in series [1] is on record as 5.9±0.3%. In addition, in series [2], the Pka1 is reported as 6.80 and the pI is 8.1. Moreover, in series [2] (second pKa column), the Pka is listed as 9.30. Also, the extraction efficiency in series [3] is on record as 70±1.6%.
As for “EDVGSNKGAIIGLM (listed as Homo sapiens) [β-Amyloid, human peptide purchased from American Peptide Company]”, in series [4], the “extraction in the second step of the sequential extraction” value was “a small amount of β-amyloid was extracted”. Moreover, in series [5], the “Ion abundance ratio (K ± sM) pH 4.0” value stood at 17 ± 6, the “Ion abundance ratio (K ± sM) pH 7.1” value is on record as 0.4 ± 0.2 and the “Ion abundance ratio (K ± sM) pH 9.0” value came to 0.10 ± 0.07.
In the same order, the values of LVVYPWT [Spinorphin, LVVYPWT] are “extracted into the organic layer”, 36 ± 12, 2.0 ± 1.0 and 1.0 ± 0.5.
For “SSEVAGEGDGDSMGHEDLY (listed as Homo sapiens) [Preproenkephalin, human peptide purchased from American Peptide Company]”, the “phase distribution after extraction” value in series [6] was “a small percentage of the preproenkephalin is believed to remain in the aqueous phase”. For the same compound, in series [5], the “Ion abundance ratio (K ± sM) pH 4.0” value turned out to be 2.2 ± 0.9, the “Ion abundance ratio (K ± sM) pH 7.1” value stood at 0.4 ± 0.1 and the “Ion abundance ratio (K ± sM) pH 9.0” value stood at 0.12 ± 0.04.
